Assay results reported in paper PMC7180452, “Purine and Purine Isostere Derivatives of Ferrocene: An Evaluation of ADME, Antitumor and Electrochemical Properties” (Molecules, 2020).

Assays:
[1] = Square-wave and cyclic voltammetry on glassy carbon electrode; type: physicochemical; details: SWV, 0.5 mol/L NaClO4, pH 9, vs Ag/AgCl
Excerpt: The electrochemical properties of 6-chloro-7-deazapurine and 6-chloropurine derivatives of ferrocene 11c, 13a and 15b on a glassy carbon electrode were studied using cyclic (CV) and square-wave voltammetry (SWV) in aqueous electrolyte solutions over a wide pH range. The pH was varied from 2 to 10 in order to determine the effect of pH on the voltammograms (net peak currents and potentials). […] The pH of the solution affects the voltammetric response of this compound, i.e., the oxidation of evaluated compounds 11c, 13a and 15b is strongly dependent on it.
The forward (if) and backward (ib) components of the net response (Δi = if − ib) are shown as well (inset in Figure 2). […] The peak P1 occurs in all supporting electrolytes (i.e., at 2 ≤ pH ≤ 10), while the peak P2 is only observed at pH ≥ 9 (see Figure 1). The potential of peak P1 is pH-independent. Comparing to the literature data, peak P1 can be ascribed to the following charge transfer reaction [Fe^II(C5H5)2] ⇌ [Fe^III(C5H5)2]^+ + e^− [44, 48].
All chemicals used in the experiments were of the best grade commercially available (Sigma-Aldrich) and were used without further purification. Stock standard solutions of compounds 11c, 13a, 15b (c = 2.0 × 10^−3 mol/L) and 6-chloropurine (c = 1.2 × 10^−2 mol/L) were prepared from dry pure substances in dimethyl sulfoxide (DMSO, p.a.), purchased from Kemika (Zagreb, Croatia). Stock standard solution of ethynyl ferrocene (c = 1.1 × 10^−2 mol/L) was prepared from dry pure substance in ethanol (Kemika). For the supporting electrolyte, analytical grade NaClO4 (Kemika) was used. Water was deionized by the Millipore Milli-Q system to the resistivity ≥ 18 MΩcm. Voltammetric measurements were carried out using the computer-controlled electrochemical system „PGSTAT 101“ (Eco-Chemie, Utrecht, The Netherlands), controlled by the electrochemical software “NOVA 1.5”. A three-electrode system (BioLogic, Claix, France) with glassy carbon electrode (GCE) of 3 mm in diameter as a working electrode, Ag/AgCl (3 mol/L NaCl) as a reference electrode and a platinum wire as a counter electrode were used. All potentials were expressed versus Ag/AgCl (3 mol/L NaCl) reference electrode. The supporting electrolyte (0.5 mol/L NaClO4), adjusted to the desired pH value, was placed in the electrochemical cell and the required aliquot of the standard analyte solution was added. The solution in the electrochemical cell was degassed with high purity nitrogen for 10 min before measurement, and the nitrogen blanket was maintained thereafter. Before each run, the glassy carbon working electrode was polished with diamond suspension in spray (grain size 6 µm) and rinsed with ethanol and deionized water. All experiments were performed at room temperature. The presented results are reported as the mean value of three independent measurements.

[2] = system: cervical carcinoma (HeLa); test: In vitro antiproliferative activity, HeLa; type: cell-based, human; details: HeLa cells
Protocol: (§1) Antiproliferative activity of compounds 11a−11c, 12a−12c, 13a−13c, 14a−14c, 15a−15c, 16a, 23a−23c, 24a−24c, 25a−25c, 34a−34c and 35a−35c was evaluated in vitro on four human tumor cell lines (American Type Culture Collection, Manassas, VA, USA): metastatic colorectal adenocarcinoma (SW620), ductal pancreatic adenocarcinoma (CFPAC-1), hepatocellular carcinoma (HepG2) and cervical carcinoma (HeLa) as well as normal skin fibroblasts (HFF).

[3] = system: metastatic colorectal adenocarcinoma (SW620); test: In vitro antiproliferative activity, SW620; type: cell-based, human; details: SW620 cells
Protocol: as §1

[4] = system: normal skin fibroblasts (HFF); test: Cytotoxicity on non-tumor cells, HFF; type: cell-based, human
Protocol: as §1

[5] = pH 7.4
Protocol: The distribution coefficient Chrom logD, a parameter used to assess the lipophilicity of compounds [36, 37], was determined for novel purine and purine isosteres with a ferrocene motif as shown in Table 1.
The distribution coefficient, Chrom logD, was determined from compounds’ gradient retention times by employing a high-performance liquid chromatography method with fast acetonitrile gradient. Compounds were prepared for analysis in final concentration of 1.25 mM by dilution of 10 mM stock solutions in DMSO with acetonitrile. Aqueous mobile phase was 50 mM ammonium acetate adjusted with ammonia solution to pH 7.4 and the organic mobile phase was acetonitrile. A reversed phase HPLC column Luna C18, 50 × 3 mm i.d., 5 µm particle size (Phenomenex, Torrance, CA, USA) was used for analysis. Sample injection volume was 2 µL and the flow rate was 1 mL min^−1. All compounds were analysed in duplicates. Fast-gradient elution was as follows: from 0 to 100% of acetonitrile (0−3 min), 100% of acetonitrile (3.0−3.5 min), from 100 to 0% of acetonitrile (3.5−3.7 min), and re-equilibration with 100% of aqueous mobile phase (3.7−5.0 min). All measurements were performed on an HPLC-DAD instrument Agilent 1100 Series (Agilent Technologies, Santa Clara, CA, USA) coupled with a mass spectrometer Micromass Quattro API (Waters, MA, USA). MassLynx software, version 4.1 (Waters, Manchester, UK) was used for data acquisition and processing. Before compound analysis, a calibration step was performed. A set of standard compounds with literature CHI values [36] were plotted against gradient retention times to obtain a calibration equation, which was used to determine CHI value from the compounds’ retention times.

[6] = system: hepatocellular carcinoma (HepG2); test: In vitro antiproliferative activity, HepG2; type: cell-based, human; details: HepG2 cells
Protocol: as §1

[7] = system: ductal pancreatic adenocarcinoma (CFPAC-1); test: In vitro antiproliferative activity, CFPAC-1; type: cell-based, human; details: CFPAC-1 cells
Protocol: as §1

Compound | Oxidation peak P2 potential (triazole) [1] | IC50 [2] | IC50 [3] | IC50 [4] | Chrom logD [5] | IC50 [6] | IC50 [7]
C#Cc1cc[cH-]c1.[Fe+2].c1cc[cH-]c1 [ethynyl ferrocene, reference compound] | No anodic peak P2 was detected |  |  |  |  |  | 
Clc1ncnc2nc[nH]c12 [6-chloropurine, reference compound] | No anodic peak P2 was detected |  |  |  |  |  | 
[Fe+2].c1cc[cH-]c1.c1ccc2c(c1)ccn2Cc1cn(C[c-]2cccc2)nn1 [Compound 24a, 1-[1-(1-Ferrocenylmethyl-1,2,3-triazol-4-yl)methyl]-1H-indole] |  | 68.7 ± 2.91 µM | 62 ± 8.79 µM | 16.7 ± 8.61 µM | >6.57 | 53.6 ± 5.05 µM | 78 ± 6.61 µM
Ic1ccc2c(ccn2Cc2cn(-[c-]3cccc3)nn2)c1.[Fe+2].c1cc[cH-]c1 [Compound 25c, 5-Iodo-1-[1-(1-ferrocenyl-1,2,3-triazol-4-yl)methyl]-1H-indole] |  | 79.4 ± 1.82 µM | > 100 µM | 4.75 ± 1.7 µM | >6.57 | 71.8 ± 3.44 µM | > 100 µM
CC([c-]1cccc1)n1cc(Cn2ccc3ccccc32)nn1.[Fe+2].c1cc[cH-]c1 (centres unmarked) [Compound 24b, 1-[1-(1-Ferrocenyl-1-methylmethyl-1,2,3-triazol-4-yl)methyl]-1H-indole] |  | 89.6 ± 7.64 µM | > 100 µM | > 100 µM | >6.57 | > 100 µM | 87.6 ± 1.79 µM
CC([c-]1cccc1)n1cc(Cn2ccc3cc(I)ccc32)nn1.[Fe+2].c1cc[cH-]c1 (centres unmarked) [Compound 25b, 5-Iodo-1-[1-(1-ferrocenyl-1-methylmethyl-1,2,3-triazol-4-yl)methyl]-1H-indole] |  | > 100 µM | > 100 µM | > 100 µM | >6.57 | > 100 µM | > 100 µM
[Fe+2].c1cc[cH-]c1.c1ccc2c(c1)ncn2Cc1cn(C[c-]2cccc2)nn1 [Compound 23a, 1-[1-(1-Ferrocenylmethyl-1,2,3-triazol-4-yl)methyl]-1H-benzimidazole] |  | > 100 µM | 97 ± 13.6 µM | 23.8 ± 3.32 µM | 4.56 | 59.9 ± 10.9 µM | 64.6 ± 12.2 µM
